Assay results published in patent US4431650A, “Esters of benzofuranyl acids” (Union Carbide Corporation, priority 1980, dated 1984).
Values after ≈ are worked out from the molar mass of the structure shown.

Key:
Assay type in all cases: in vivo
[1] = tested on: bean aphid (Aphis fabae Scop.); assay: Bean Aphid Foliage Spray Test; details: foliar, foliage spray on nasturtium plants, adults and nymphs, mortality after 24 hour holding period, read-out: LD50 Aphid
Procedure: (§1) Suspensions of the test compounds were prepared by dissolving one gram of compound in 50 milliliters of acetone in which had been dissolved 0.1 gram (10 percent of the weight of compound) of an alkylphenoxy polyethoxyethanol surfactant, as an emulsifying or dispersing agent. The resulting solution was mixed into 150 milliliters of water to give roughly 200 milliliters of a suspension containing the compound in finely divided form. The thus-prepared stock suspension contained 0.5 percent by weight of compound. The concentrations in parts per million by weight employed in the tests described hereinbelow were obtained by appropriate dilutions of the stock suspension with water. The test procedures were as follows:
Adults and nymphal stages of the bean aphid (Aphis fabae Scop.) reared on potted dwarf nasturtium plants at 65°-70° F. and 50-70 percent relative humidity, constituted the test insects. For testing purposes, the number of aphids per pot was standardized to 100-150 by trimming plants containing excess aphids. […]
The potted plants (one pot per compound tested) infested with 100-150 aphids, were placed on a revolving turntable and sprayed with 100-110 milliliters of test compound formulation by use of a DeVilbiss spray gun set at 40 psig. air pressure. […] Percent mortality was recorded for various concentration levels. […]

[2] = tested on: two-spotted mite (Tetranychus urticae Koch); assay: Mite Foliage Spray Test; details: foliar, 144 h, foliage spray on bean plants, adults and nymphs, mortality count of motile forms after six days, read-out: LD50 Mite
Procedure: as §1
Adults and nymphal stage of the two-spotted mite (Tetranychus urticae Koch), reared on Tendergreen bean plants at 80±5 percent relative humidity, were the test organisms. Infested leaves from a stock culture were placed on the primary leaves of two bean plants six to eight inches in height, growing in a two-and-a-half inch clay pot. 150-200 Mites, a sufficient number for testing, transferred from the excised leaves to the fresh plants in a period of twenty four hours. Following the twenty four hour transfer period, the excised leaves were removed from the infested plants. […]

[3] = tested on: southern armyworm (Spodoptera eridania, (Cram.)); assay: Southern Armyworm Leaf Spray Bait Test; details: 72 h, larvae on sprayed bean leaves, held three days, read-out: LD50 SAW
Procedure: as §1
Larvae of the southern armyworm (Spodoptera eridania, (Cram.)), reared on Tendergreen bean plants at a temperature of 80°±5° F. and a relative humidity of 50± percent, constituted the test insects.
The test compounds were formulated by diluting the stock suspension with water to give a suspension containing 500 parts of test compound per million parts of final formulation. Potted Tendergreen bean plants of standard height and age were placed on a revolving turntable and sprayed with 100-110 milliliter of test compound formulation by use of a DeVilbiss spray gun set at 10 psig air pressure. […] Percent mortality was recorded for various concentration levels. […]

[4] = tested on: Mexican bean beetle (Epilachna variestis, Muls.); assay: Mexican Bean Beetle Leaf Spray Test; details: 72 h, read-out: LD50 MBB
Procedure: as §1
Fourth instar larvae of the Mexican bean beetle (Epilachna variestis, Muls.), reared on Tendergreen bean plants at a temperature of 80°±5° F. and 50±5 percent relative humidity, were the test insects.
The test compounds were formulated by diluting the stock suspension with water to give a suspension containing 500 parts of test compound per million parts of final formulation. Tendergreen bean plants of standard height and age were placed on a revolving turntable and sprayed with 100-110 milliliters of test compound formulation by use of a DeVilbiss spray gun set at 10 psig air pressure. This application, which lasted 25 seconds, was sufficient to wet plants to run-off. […]

[5] = tested on: house flies (Musca domestica, L.); assay: Fly Bait Test; details: po, 24 h, adult flies, bait in 10 percent sugar solution, twenty four hours, read-out: LD50 HF
Procedure: as §1
Four to six day old adult house flies (Musca domestica, L.), reared according to the specifications of the Chemical Specialities Manufacturing Association (Blue Book, McNair-Dorland Co., N.Y. 1954; pages 243-244, 261) under controlled conditions of 80± F. and 50±5 percent relative humidity, were the test insects. The flies were immobilized by anesthetizing with carbon dioxide and twenty five immobilized individuals,males and females, were transferred to a cage consisting of a standard food strainer about five inches in diameter which was inverted over a wrapping-paper-covered surface. […]

[6] = tested on: Corn; assay: Phytotoxicity, corn; parameters: key: 1 = No plant injury at a dose of 2500 ppm; details: rating; dose of 2500 ppm
[7] = tested on: Cott.; assay: Phytotoxicity, cotton; parameters: key: 1 = No plant injury at a dose of 2500 ppm; details: rating; dose of 2500 ppm
[8] = tested on: Soybean; assay: Phytotoxicity, soybean; parameters: key: 1 = No plant injury at a dose of 2500 ppm; details: rating; dose of 2500 ppm

Compound | LC50 [1] [µg/mL] | LC50 [2] [µg/mL] | LC50 [3] [µg/mL] | LC50 [4] [µg/mL] | LC50 [5] [µg/mL] | Phytotoxicity Corn [6] | Phytotoxicity Cott. [7] | Phytotoxicity Soybean [8]
CC(C)C(C(=O)OC(C#N)c1cccc(Oc2ccccc2)c1)c1cc2ccccc2o1 (stereo not shown) | ~0.7 (≈ 1.65 µM) | 210 (≈ 494 µM) | ~45 (≈ 106 µM) | 11 (≈ 25.9 µM) | 23 (≈ 54.1 µM) | 1 | 1 | 1
C#CC(OC(=O)C(c1cc2ccccc2o1)C(C)C)c1cccc(Oc2ccccc2)c1 (stereo not shown) | 0.8 (≈ 1.88 µM) | 200 (≈ 471 µM) | 52 (≈ 122 µM) | 5 (≈ 11.8 µM) | ~180 (≈ 424 µM) | 1 | 1 | 1
